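How tested: cells in 96-well plates exposed to compound for 48 hours at five concentrations. Definition used: TGI = concentration required for complete inhibition of growth.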
Legend:
Assay in all cases: DTP human tumour cell line panel, 48 h
[1] = system: K-562 leukemia
[2] = system: SNB-75 CNS
[3] = system: HOP-62 NSCLC
[4] = system: HCT-15 colon
[5] = system: T-47D breast
[6] = system: RXF 393 renal
[7] = system: MOLT-4 leukemia
[8] = system: OVCAR-3 ovarian
[9] = system: OVCAR-8 ovarian
[10] = system: RPMI-8226 leukemia
[11] = system: SNB-19 CNS
[12] = system: A498 renal
[13] = system: SF-295 CNS
[14] = system: PC-3 prostate
[15] = system: SF-539 CNS
[16] = system: OVCAR-5 ovarian
[17] = system: SK-OV-3 ovarian
[18] = system: HOP-92 NSCLC
[19] = system: U251 CNS
[20] = system: LOX IMVI melanoma

Row | SMILES | TGI [1] | TGI [2] | TGI [3] | TGI [4] | TGI [5] | TGI [6] | TGI [7] | TGI [8] | TGI [9] | TGI [10] | TGI [11] | TGI [12] | TGI [13] | TGI [14] | TGI [15] | TGI [16] | TGI [17] | TGI [18] | TGI [19] | TGI [20]
1 | O=C(/C=C/c1ccc(O)c(O)c1)NCCc1ccc(-c2ccccc2)cc1 | 80.4 µM | > 100 µM | > 100 µM | > 100 µM | > 100 µM | > 100 µM | > 100 µM | 65.7 µM | > 100 µM | > 100 µM | > 100 µM | > 100 µM | > 100 µM | > 100 µM | > 100 µM | > 100 µM | > 100 µM |  |  | 
2 | C=C1CC(COc2ccc3c(C)cc(=O)oc3c2)(c2ccccc2)OC1=O (configuration not stated) |  | 19.2 µM | 31 µM | 3.62 µM |  |  | 6.77 µM | 5.59 µM | 5.57 µM | 1.62 µM | 29 µM | 14.1 µM | 23 µM | 5.78 µM | 5.05 µM | 24.5 µM | 14.9 µM | 1.56 µM | 23.6 µM | 3.1 µM
3 | O=C(Nc1nc(C23CC4CC(CC(C4)C2)C3)cs1)c1cc2c(ccc3ccccc32)oc1=O | > 100 µM |  | > 100 µM | > 100 µM |  |  | > 100 µM | > 100 µM | > 100 µM | > 100 µM | > 100 µM | > 100 µM | > 100 µM | > 100 µM | > 100 µM | > 100 µM |  | > 100 µM | > 100 µM | > 100 µM
4 | COc1ccc(C[C@H](N)C(=O)N2C[C@@H](CO)C[C@@H](n3cnc4c(N(C)C)ncnc43)C2)cc1 | > 100 µM |  | > 100 µM | > 100 µM |  |  | > 100 µM | > 100 µM | > 100 µM | > 100 µM | > 100 µM |  | > 100 µM |  | > 100 µM | > 100 µM | > 100 µM | > 100 µM | > 100 µM | > 100 µM
5 | Cn1c(=O)oc2cc(Br)ccc21 | > 100 µM | > 100 µM | > 100 µM | > 100 µM | > 100 µM | > 100 µM | > 100 µM | > 100 µM | > 100 µM | > 100 µM | > 100 µM | > 100 µM | > 100 µM | > 100 µM | > 100 µM | > 100 µM | > 100 µM |  |  | > 100 µM
6 | Nc1c(N2CCCCC2)c(=O)nc2[nH]/c(=C\c3ccccc3)c(=O)n12 | > 100 µM | > 100 µM |  | > 100 µM | > 100 µM | > 100 µM | > 100 µM |  | > 100 µM | > 100 µM | > 100 µM | > 100 µM | > 100 µM |  | > 100 µM | > 100 µM | > 100 µM | > 100 µM | > 100 µM | > 100 µM
7 | Cc1ccc(-c2cc(-c3c(C)nn(C)c(=O)c3N)[nH]n2)cc1 | > 100 µM |  |  | > 100 µM | > 100 µM | > 100 µM | > 100 µM | > 100 µM | > 100 µM | > 100 µM | > 100 µM | > 100 µM | > 100 µM | > 100 µM | > 100 µM | > 100 µM | > 100 µM | > 100 µM | > 100 µM | > 100 µM
8 | O=C(NNC(=S)NCc1ccccc1)C12CC3CC(CC(C3)C1)C2 | > 100 µM | > 100 µM | > 100 µM | > 100 µM | > 100 µM | > 100 µM | > 100 µM | > 100 µM | > 100 µM | > 100 µM | > 100 µM | > 100 µM | > 100 µM | > 100 µM | > 100 µM | > 100 µM | > 100 µM |  | > 100 µM | > 100 µM
9 | O=C(O)c1ccc(Nc2nc3cc(C(F)(F)F)ccc3nc2-c2ccccc2)cc1 | 42.7 µM | 63.9 µM | 43.1 µM | 30.6 µM | 35.1 µM | 81.5 µM | > 100 µM | 28.4 µM | > 100 µM | 83.1 µM | > 100 µM |  | 27.9 µM | 40.6 µM | 56.4 µM | 97.7 µM |  |  | 34.2 µM | 32.5 µM
10 | COc1ccccc1NC(=S)Nc1cc(C)ccn1 | > 100 µM | > 100 µM | > 100 µM | > 100 µM | > 100 µM | > 100 µM | > 100 µM | > 100 µM | > 100 µM | > 100 µM | > 100 µM | > 100 µM | > 100 µM | > 100 µM | > 100 µM | > 100 µM | > 100 µM |  | > 100 µM | > 100 µM
11 | CC(=O)O[C@@H]1O[Si](C(C)(C)C)(C(C)(C)C)[C@H](C)[C@H]1C | > 100 µM | > 100 µM | > 100 µM | > 100 µM | > 100 µM |  | 65.7 µM | > 100 µM | > 100 µM | > 100 µM | > 100 µM | > 100 µM | > 100 µM | > 100 µM | > 100 µM | > 100 µM | > 100 µM |  | > 100 µM | > 100 µM
12 | CC1=NN(C(=O)c2ccc(Cl)cc2)C(=O)/C1=C/c1ccco1 | > 100 µM |  | > 100 µM | > 100 µM |  | > 100 µM | > 100 µM | > 100 µM | > 100 µM | > 100 µM | > 100 µM | > 100 µM | > 100 µM |  | > 100 µM | > 100 µM | > 100 µM | > 100 µM | > 100 µM | > 100 µM
13 | Cc1c2c(ccc3ccccc32)c[n+]2ccccc12 | 37.8 µM | 8.94 µM | 26.7 µM | > 100 µM |  |  | 27.9 µM | 19.3 µM | 60.1 µM | > 100 µM | 7.89 µM |  | 22.5 µM |  | 33.2 µM | > 100 µM |  | 90.8 µM | 13.8 µM | 

— PubChem BioAssay (NCI)
